From US4206215A, “Antimicrobial bis-[4-(substituted-amino)-1-pyridinium]alkanes” (Sterling Drug Inc., priority 1977, dated 1980)
Read-outs that look alike come from different tables or passages of the source.

Assays:
K. pneum. 39645 = assay: In vitro antibacterial activity, MIC (modified Autotiter method); format: cell-based, Klebsiella pneumoniae; conditions: 18-20 hours at 37° C.; for MIC: Klebsiella pneumoniae, 20 h, read-out: MIC K. pneum. 39645
In short: (§1)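 Modified Goss Autotiter dilution. 1,000 mcg./ml. solution → twofold series in sterile H2O → inoculated 2x glucose semisynthetic medium added. Tested finals 500–0.06 mcg./ml.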

S. Aureus Smith = assay: as above; format: cell-based, Staphylococcus aureus; conditions: 18-20 hours at 37° C.; for MIC: Staphylococcus aureus, 20 h, read-out: MIC S. Aureus Smith
In short: as §1

A. niger 16404 = assay: In vitro antifungal activity, MIC (modified Autotiter method); format: cell-based, Aspergillus niger; conditions: 18-20 hours at 37° C.; for MIC: Aspergillus niger, 16404, 20 h, read-out: MIC A. niger 16404
In short: as §1

C. albicans 10231 = assay: as above; format: cell-based, Candida albicans; conditions: 18-20 hours at 37° C.; for MIC: Candida albicans, 10231, 20 h, read-out: MIC C. albicans 10231
In short: as §1

C. albicans Wisc. = assay: as above; format: cell-based, Candida albicans; conditions: 18-20 hours at 37° C.; for MIC: Candida albicans, 20 h, read-out: MIC C. albicans Wisc.
In short: as §1

S. pyogen. C203 = assay: In vitro antibacterial activity, MIC (modified Autotiter method); format: cell-based, Streptococcus pyogenes; conditions: 18-20 hours at 37° C.; for MIC: Streptococcus pyogenes, 20 h, read-out: MIC S. pyogen. C203
In short: as §1

P. mirab. MGH-1 = assay: as above; format: cell-based, Proteus mirabilis; conditions: 18-20 hours at 37° C.; for MIC: Proteus mirabilis, 20 h, read-out: MIC P. mirab. MGH-1
In short: as §1

S. Aureus ATCC 6538 = assay: Effect of serum on bacteriostatic activity (serial tube dilution test); format: cell-based, Staphyloccocus aureus; conditions: for Fold Increase in MIC S. Aureus ATCC 6538: 40% vs 0% horse serum; for MIC: Staphylococcus aureus, ATCC6538
Method: (§2) Antibacterial effectiveness in the presence of serum was determined for representative examples by the standard serial tube dilution test wherein paired comparisons of minimum inhibitory concentrations (MIC) were determined in the absence and in the presence of heat inactivated (30 min. at 56° C.) horse serum (40%) in the test medium. The results are expressed as the fold increase in MIC (mcg./ml.) versus Staphyloccocus aureus and Escherichia coli caused by the presence of serum and are presented in Table B hereinbelow.

[1] = test system: young adult male Swiss-Webster strain albino mice; assay: Acute oral toxicity (ALD50); format: in vivo
Method: (§3) The acute oral toxicity (ALD50) of several representative examples was determined as follows: Groups of 3 young adult male Swiss-Webster strain albino mice were fasted approximately 4 hours before medication and then medicated once orally by stomach tube.

[2] = Acute oral toxicity (ALD50); format: in vivo; conditions: mouse, in vivo, po, mice, read-out: 7-Day ALD50
Method: as §3

E. coli AB1932-1 = assay: In vitro antibacterial activity, MIC (modified Autotiter method); format: cell-based, Escherichia coli; conditions: 18-20 hours at 37° C.; for MIC: Escherichia coli, AB19321, 20 h, read-out: MIC E. coli AB1932-1
In short: as §1

E. coli Vogel = assay: as above; format: cell-based, Escherichia coli; conditions: 18-20 hours at 37° C.; for MIC: Escherichia coli, 20 h, read-out: MIC E. coli Vogel
In short: as §1

E. coli 100/B22 = assay: as above; format: cell-based, Escherichia coli; conditions: for MIC: Escherichia coli, 100/B22, 20 h, read-out: MIC E. coli 100/B22, 18-20 hours at 37° C.
In short: as §1

T. menta. 9129 = assay: In vitro antifungal activity, MIC (modified Autotiter method); format: cell-based, Trichophyton mentagrophytes; conditions: 18-20 hours at 37° C.; for MIC: Trichophyton mentagrophytes, 20 h, read-out: MIC T. menta. 9129
In short: as §1

E. Coli ATCC 8739 = assay: Effect of serum on bacteriostatic activity (serial tube dilution test); format: cell-based, Escherichia coli; conditions: for Fold Increase in MIC E. Coli ATCC 8739: 40% vs 0% horse serum; for MIC: Escherichia coli, ATCC8739
Method: as §2

Ps. aerug. MGH-2 = assay: In vitro antibacterial activity, MIC (modified Autotiter method); format: cell-based, Pseudomonas aeruginosa; conditions: 18-20 hours at 37° C.; for MIC: Pseudomonas aeruginosa, 20 h, read-out: MIC Ps. aerug. MGH-2
In short: as §1

[3] = 40% heat inactivated horse serum, read-out: MIC S. Aureus ATCC 6538 40% Serum
[4] = read-out: MIC S. Aureus ATCC 6538 0% Serum
[5] = 125 mg/kg oral, suspension in 1% G.T.
[6] = 250 mg/kg oral, suspension in 1% G.T.
[7] = 500 mg/kg oral, suspension in 1% G.T.
[8] = 1000 mg/kg oral, suspension in 1% G.T.
[9] = suspension in 1% gum tragacanth
[10] = 40% heat inactivated horse serum, read-out: MIC E. Coli ATCC 8739 40% Serum
[11] = read-out: MIC E. Coli ATCC 8739 0% Serum
[12] = 125 mg/kg oral, aqueous solution
[13] = 250 mg/kg oral, aqueous solution
[14] = 500 mg/kg oral, aqueous solution
[15] = 1000 mg/kg oral, aqueous solution

Compound `CCCCCCCNc1cc[n+](CCCCCCCCCC[n+]2ccc(NCCCCCCC)cc2)cc1` [Example 26, 1,10-bis-[4-(heptylamino)-1-pyridinium]decane dibromide] has an MIC (K. pneum. 39645) of 1.49 µg/mL, an MIC (S. Aureus Smith) of 0.37 µg/mL and an MIC (A. niger 16404) of 2.98 µg/mL. The “MIC C. albicans 10231” value (C. albicans 10231) was 0.75 µg/mL, the MIC (C. albicans Wisc.) was 1.49 µg/mL and the “MIC S. pyogen. C203” value (S. pyogen. C203) was 1.95 µg/mL. The MIC (P. mirab. MGH-1) was 6 µg/mL, the “Fold Increase in MIC S. Aureus ATCC 6538” value (S. Aureus ATCC 6538) was 16 fold and the MIC (S. Aureus ATCC 6538; [3]) was 1.95 µg/mL. The MIC (S. Aureus ATCC 6538; [4]) was 0.125 µg/mL, the “Mortality 7 Days” value [1, 5] was 0/3 and the “Mortality 24 Hrs” value [1, 5] was 0/3. The “Mortality 7 Days” value [1, 6] was 0/3, the “Mortality 24 Hrs” value [1, 6] was 0/3 and the “Mortality 7 Days” value [1, 7] was 0/3. The “Mortality 24 Hrs” value [1, 7] was 0/3, the “Mortality 7 Days” value [1, 8] was 0/3 and the “Mortality 24 Hrs” value [1, 8] was 0/3. For the same compound, the LD50 at 168 h [2, 9] was greater than 1000 mg/kg, the MIC (E. coli AB1932-1) was 0.75 µg/mL and the MIC (E. coli Vogel) was 0.75 µg/mL. The MIC (E. coli 100/B22) was 0.75 µg/mL, the MIC (T. menta. 9129) was 0.75 µg/mL and the “Fold Increase in MIC E. Coli ATCC 8739” value (E. Coli ATCC 8739) was 16 fold. For the same compound, the MIC (E. Coli ATCC 8739; [10]) was 7.8 µg/mL, the MIC (E. Coli ATCC 8739; [11]) was 0.5 µg/mL and the MIC (Ps. aerug. MGH-2) was 11.9 µg/mL.

Compound `CCCCCCCCCNc1cc[n+](CCCCCCCC[n+]2ccc(NCCCCCCCCC)cc2)cc1` [Example 29C, 1,8-bis-[4-(nonylamino)-1-pyridinium]octane dibromide] has an MIC (K. pneum. 39645) of 1.95 µg/mL, an MIC (S. Aureus Smith) of 1 µg/mL and an MIC (A. niger 16404) of 7.8 µg/mL. The MIC (C. albicans 10231) was 3.9 µg/mL, the MIC (C. albicans Wisc.) was 3.9 µg/mL and the MIC (S. pyogen. C203) was 1.95 µg/mL. The MIC (P. mirab. MGH-1) was 3.9 µg/mL, the “Fold Increase in MIC S. Aureus ATCC 6538” value (S. Aureus ATCC 6538) was 16 fold and the MIC (S. Aureus ATCC 6538; [3]) was 7.8 µg/mL. For the same compound, the MIC (S. Aureus ATCC 6538; [4]) was 0.5 µg/mL, the “Mortality 7 Days” value [1, 5] was 0/3 and the “Mortality 24 Hrs” value [1, 5] was 0/3. The “Mortality 7 Days” value [1, 6] was 0/3, the “Mortality 24 Hrs” value [1, 6] was 0/3 and the “Mortality 7 Days” value [1, 7] was 0/3. For the same compound, the “Mortality 24 Hrs” value [1, 7] was 0/3, the “Mortality 7 Days” value [1, 8] was 0/3 and the “Mortality 24 Hrs” value [1, 8] was 0/3. For the same compound, the LD50 at 168 h [2, 9] was greater than 1000 mg/kg, the MIC (E. coli AB1932-1) was 1.95 µg/mL and the MIC (E. coli Vogel) was 3.9 µg/mL. For the same compound, the MIC (E. coli 100/B22) was 1.95 µg/mL, the MIC (T. menta. 9129) was 1.95 µg/mL and the “Fold Increase in MIC E. Coli ATCC 8739” value (E. Coli ATCC 8739) was 16 fold. For the same compound, the MIC (E. Coli ATCC 8739; [10]) was 62.5 µg/mL, the MIC (E. Coli ATCC 8739; [11]) was 3.9 µg/mL and the MIC (Ps. aerug. MGH-2) was 7.8 µg/mL.

In the case of `CCCCC(CC)CNc1cc[n+](CCCCCCCCCCCC[n+]2ccc(NCC(CC)CCCC)cc2)cc1` (stereo not drawn) [Example 41C, 1,12-bis-[4-(2-ethylhexylamino)-1-pyridinium]dodecane dibromide], the MIC (K. pneum. 39645) is reported as 1.95 µg/mL, the MIC (S. Aureus Smith) is reported as 0.5 µg/mL and the MIC (A. niger 16404) is reported as 3.9 µg/mL. For the same compound, the MIC (C. albicans 10231) was 1 µg/mL, the MIC (C. albicans Wisc.) was 1 µg/mL and the MIC (S. pyogen. C203) was 0.5 µg/mL. The MIC (P. mirab. MGH-1) was 3.9 µg/mL, the “Fold Increase in MIC S. Aureus ATCC 6538” value (S. Aureus ATCC 6538) was 32 fold and the MIC (S. Aureus ATCC 6538; [3]) was 7.8 µg/mL. The MIC (S. Aureus ATCC 6538; [4]) was 0.25 µg/mL, the “Mortality 7 Days” value [1, 5] was 0/3 and the “Mortality 24 Hrs” value [1, 5] was 0/3. The “Mortality 7 Days” value [1, 6] was 0/3, the “Mortality 24 Hrs” value [1, 6] was 0/3 and the “Mortality 7 Days” value [1, 7] was 0/3. For the same compound, the “Mortality 24 Hrs” value [1, 7] was 0/3, the “Mortality 7 Days” value [1, 8] was 0/3 and the “Mortality 24 Hrs” value [1, 8] was 0/3. For the same compound, the LD50 at 168 h [2, 9] was greater than 1000 mg/kg, the MIC (E. coli AB1932-1) was 1 µg/mL and the MIC (E. coli Vogel) was 1 µg/mL. For the same compound, the MIC (E. coli 100/B22) was 1 µg/mL, the MIC (T. menta. 9129) was 1 µg/mL and the “Fold Increase in MIC E. Coli ATCC 8739” value (E. Coli ATCC 8739) was 64 fold. For the same compound, the MIC (E. Coli ATCC 8739; [10]) was 62.5 µg/mL, the MIC (E. Coli ATCC 8739; [11]) was 1 µg/mL and the MIC (Ps. aerug. MGH-2) was 3.9 µg/mL.

With `CCCCC(CC)CNc1cc[n+](CCCCCCCCCC[n+]2ccc(NCC(CC)CCCC)cc2)cc1` (stereo not drawn) [Example 59, 1,10-Bis-[4-(2-ethylhexylamino)-1-pyridinium]-decane dichloride] the “MIC K. pneum. 39645” value (K. pneum. 39645) was 1.95 µg/mL, the “MIC S. Aureus Smith” value (S. Aureus Smith) was 0.25 µg/mL and the “MIC A. niger 16404” value (A. niger 16404) was 15.6 µg/mL. For the same compound, the “MIC C. albicans 10231” value (C. albicans 10231) was 1.95 µg/mL, the “MIC C. albicans Wisc.” value (C. albicans Wisc.) was 1.95 µg/mL and the “MIC S. pyogen. C203” value (S. pyogen. C203) was 1.0 µg/mL. The “MIC P. mirab. MGH-1” value (P. mirab. MGH-1) was 7.8 µg/mL, the “Mortality 7 Days” value [1, 12] was 0/3 and the “Mortality 24 Hrs” value [1, 12] was 0/3. For the same compound, the “Mortality 7 Days” value [1, 13] was 0/3, the “Mortality 24 Hrs” value [1, 13] was 0/3 and the “Mortality 7 Days” value [1, 14] was 2/3. The “Mortality 24 Hrs” value [1, 14] was 1/3, the “Mortality 7 Days” value [1, 15] was 1/3 and the “Mortality 24 Hrs” value [1, 15] was 1/3. The LD50 at 168 h ([2]; aqueous solution) was 750 mg/kg, the “MIC E. coli AB1932-1” value (E. coli AB1932-1) was 1.0 µg/mL and the “MIC E. coli Vogel” value (E. coli Vogel) was 1.0 µg/mL. For the same compound, the “MIC E. coli 100/B22” value (E. coli 100/B22; 18-20 hours at 37° C.) was 0.5 µg/mL, the “MIC T. menta. 9129” value (T. menta. 9129) was 1.0 µg/mL and the “MIC Ps. aerug. MGH-2” value (Ps. aerug. MGH-2) was 31.3 µg/mL.
